Laboratory results taken from US11377429B2, “Benzothia(di)azepine compounds and their use as bile acid modulators” (Albireo AB, priority 2020, dated 2022).

Biological target: T1, Human IBAT (Homo sapiens, UniProt Q12908)
T1 construct: expressed in transfected cells; cultured under Puromycin selection
T1 sequence (Q12908 1-348): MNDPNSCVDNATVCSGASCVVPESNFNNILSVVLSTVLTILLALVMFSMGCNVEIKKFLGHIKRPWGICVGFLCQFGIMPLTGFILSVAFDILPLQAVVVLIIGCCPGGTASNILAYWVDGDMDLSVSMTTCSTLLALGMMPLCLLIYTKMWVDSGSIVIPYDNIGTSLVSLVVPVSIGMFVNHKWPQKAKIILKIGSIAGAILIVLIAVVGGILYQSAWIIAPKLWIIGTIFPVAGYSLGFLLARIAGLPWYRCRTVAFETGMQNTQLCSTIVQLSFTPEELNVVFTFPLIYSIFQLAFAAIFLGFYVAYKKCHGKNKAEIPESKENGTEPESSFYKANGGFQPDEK
Experiment: IBAT (h/m) assay, human IBAT-overexpressing cells, 3H-taurocholic acid uptake
Assay type: cell-based
Conditions: read-out: hIBAT IC50
Experimental: IBAT (h/m) Assay Protocol
10,000 cells (Human or Mouse IBAT-overexpressing cells) were seeded in 96-wells plate (Corning CLS3809) in 200 μL MEM-alpha medium (Gibco 12571-063) supplemented with 10% FBS (Gibco 10438026) containing Puromycin (Gibco A1113803) (10 μg/mL) and incubated at 37° C. in 5% CO2 for 48 hours. After incubation, media was decanted from the wells and cells were washed two times with 300 μL of basal MEM-alpha medium (FBS-free). After decanting basal MEM-alpha medium each time, plates were tapped against paper towel to ensure maximum removal of residual media. Test inhibitor dilutions (highest test concentration being 10 μM, 3-fold serial dilution, 10 points) prepared in DMSO (Sigma D2650) were added in incubation mix (maintaining 0.2% final DMSO concentration) containing 0.25 μM 3H-taurocholic acid (ARC ART-1368) and 5 μM of cold taurocholic acid (Sigma T4009). 50 μL of incubation mix containing test inhibitors was then added to the wells (in duplicate) and the plates were incubated for 20 minutes in a CO2 incubator at 37° C. After incubation, the reaction was stopped by keeping the plates on ice water mix for 2-3 minutes and then the incubation mix was aspirated completely from the wells. The wells were washed two times with 250 μL of chilled unlabeled 1 mM taurocholic acid dissolved in HEPES (Gibco 15630080)-buffered (10 mM) HBSS (Gibco 14175079) (pH 7.4). The plates were tapped against a paper towel after every wash to ensure maximum removal of blocking buffer. 100 μL of MicroScint-20 (PerkinElmer 6013621) was added to the wells and kept overnight at room temperature before reading the plates in TopCount NXT™ Microplate Scintillation and Luminescence Counter from PerkinElmer under 3H Test protocol (set at 120 seconds reading time per well).
Preparation of Test Compound Dilutions
All test compounds were provided in powder form at room temperature. 10 mM DMSO stocks of the test compounds were prepared, aliquoted and stored at −20° C. From the 10 mM DMSO stock of the compounds, a 3-fold serial dilution in DMSO was prepared to get a total of 10 dilutions of the test compounds. 0.5 μL of this dilution in DMSO was added to 250 μL of FBS-free basal media containing 3H-taurocholic acid and cold taurocholic acid to prepare the incubation mixture.

IC50: 1 nM
Structure (SMILES): CCCCC1(C)CN(c2ccc(F)cc2)c2cc(SC)c(OCC(O)C(=O)O)cc2S(=O)(=O)C1 (single isomer, unassigned) [1, diastereomer 1]
